Experimental data published in patent US20170231910A1, “PHARMACEUTICAL FORMULATIONS OF CHELATING AGENTS AS A METAL REMOVAL TREATMENT SYSTEM” (ZONEONE PHARMA, INC., priority 2014, published 2017).
Counter-ions that a name gives are not always drawn.

Columns and labels:
[1] = PK of DFO in plasma of mice after liposomal DFO or Desferal; type: in vivo, CF-1 female mice; details: 100 mg/kg
Procedure: Liposomes containing egg PC/Chol (3 mol/2 mol, LDFO-1), egg PC/DOPG/Chol (2.7 mol/0.3 mol/2 mol, LDFO-2), and HSPC/Chol (3 mol/2 mol, LDFO-4) containing 500 mM ammonium sulfate were prepared as in Example 1. DFO was remote loaded as in Example 20.
After loading the liposomes were purified by dialysis versus HBS pH 6.5. The liposomes were sterilized by filtration through 0.2 um PES filters and analyzed for drug and lipid content. The liposomal DFO were administered to CF-1 female mice at 100 mg/kg (n=3) and at various times the animals were sacrificed and blood taken.
After processing to plasma, DFO was extracted from plasma by mixing with 6 volumes of methanol containing 0.1% trifluoroacetic acid in an eppendorf tube. The mixtures were vortexed twice for 10 seconds then placed at −80° C. for 1 h. The samples were thawed and centrifuged for 12,000 rpm for 10 min at 4° C. and the supernatant analyzed for DFO by HPLC as described herein. […] By comparison DFO was undetectable beyond 1 h after dosing with Desferal®.

[2] = test system: Iron Overloaded Mouse Model; test: Liver iron removal from iron overloaded mouse model (ferrozine assay); type: in vivo; details: iron-dextran overloaded mice, IV 100 mg/kg chelator on day 7 and day 10
Procedure: LDFO formulations were prepared as described in Example 1. Both formulations were composed of HSPC/cholesterol (3/0.5 (mol/mol)). One formulation was prepared using 250 mM ammonium sulfate (LDFO-AS) as the trapping agent and the second formulation was prepared using 250 mM ascorbate phosphate (LDFO-AP) as the trapping agent and all other components and DFO loading procedures of the formulations were identical. Mice were overloaded with a single IV injection of iron-dextran at 100 mg/kg Fe. Overloaded mice were treated with each formulation IV at 100 mg/kg chelator on day 7 and day 10. The mice were sacrificed after the second treatment and the livers were analyzed for iron content using a ferrozine assay (Riemer et al. 2004)

In the case of `CC(=O)N(O)CCCCCNC(=O)CCC(=O)N(O)CCCCCNC(=O)CCC(=O)N(O)CCCCCN` [Desferal, deferoxamine mesylate], the “DFO in plasma after dosing” value ([1]; beyond 1 h after dosing) was “undetectable”, the “initial dose (ID) of DFO retained in the plasma at 24 h” value ([1]; IV, 24 h) was “undetectable” and the “mean liver iron content after treating” value [2] was 229 mg/kg.
